Assay: The dark toxicity against 543 human galactophore carcinoma cells
Assay type: functional

OC1c2cc3ccc([nH]3)c(-c3ccccc3)c3ccc(cc4nc(c(-c5ccccc5)c(n2)C1O)C=C4)[nH]3 (stereo unspecified)
IC90: > 32 µg/mL

From ChEMBL document CHEMBL1134735, “Synthesis and photodynamic action of diphenyl-2,3-dihydroxychlorin: a potential tumor photosensitizer” (2001)
